Experiments:
[1] = tested on: A549 cells (EGFR wild-type non-small-cell lung cancer); assay: MTT cell viability assay, A549 cells; format: cell-based; settings: Homo sapiens, A549, 72 h, read-out: IC50 A549
[2] = tested on: Vero cells (normal kidney epithelial cell); assay: MTT cell viability assay, Vero cells; format: cell-based; settings: read-out: IC50 Vero, 72 h, mean ± S.E.M., n = 3

CN(C)C/C=C/C(=O)Nc1cc2c(Nc3ccc(F)c(Cl)c3)ncnc2cc1O[C@H]1CCOC1 [Afatinib]
IC50 [1]: 13.1 ± 0.8 µM | IC50 [2]: 5.77 ± 1.59 µM
